Test results from PubChem BioAssay (NCI).
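Compound exposure: 48 hours, 5 concentrations, 96-well plates. Here, GI50 denotes the concentration required for 50% inhibition of growth. TGI denotes the concentration required for complete inhibition of growth.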

Columns and labels:
Assay in all cases: growth of human tumour cells (NCI), 48 h
HOP-92 NSCLC = test system: HOP-92 NSCLC
UO-31 renal = test system: UO-31 renal
PC-3 prostate = test system: PC-3 prostate
MALME-3M melanoma = test system: MALME-3M melanoma
M14 melanoma = test system: M14 melanoma
MDA-MB-231 breast = test system: MDA-MB-231 breast
SK-MEL-5 melanoma = test system: SK-MEL-5 melanoma
BT-549 breast = test system: BT-549 breast
HS 578T breast = test system: HS 578T breast
RPMI-8226 leukemia = test system: RPMI-8226 leukemia
HT29 colon = test system: HT29 colon
UACC-257 melanoma = test system: UACC-257 melanoma
LOX IMVI melanoma = test system: LOX IMVI melanoma
OVCAR-5 ovarian = test system: OVCAR-5 ovarian
OVCAR-4 ovarian = test system: OVCAR-4 ovarian
DU-145 prostate = test system: DU-145 prostate
OVCAR-8 ovarian = test system: OVCAR-8 ovarian
OVCAR-3 ovarian = test system: OVCAR-3 ovarian
HCT-15 colon = test system: HCT-15 colon
A549 NSCLC = test system: A549 NSCLC
786-0 renal = test system: 786-0 renal
SNB-75 CNS = test system: SNB-75 CNS
NCI-H460 lung = test system: NCI-H460 lung
MOLT-4 leukemia = test system: MOLT-4 leukemia
SNB-19 CNS = test system: SNB-19 CNS
CAKI-1 renal = test system: CAKI-1 renal
A498 renal = test system: A498 renal
IGROV1 ovarian = test system: IGROV1 ovarian
TK-10 renal = test system: TK-10 renal
MDA-MB-435 = test system: MDA-MB-435
KM12 colon = test system: KM12 colon
HL-60(TB) leukemia = test system: HL-60(TB) leukemia
T-47D breast = test system: T-47D breast
EKVX NSCLC = test system: EKVX NSCLC
NCI-H23 lung = test system: NCI-H23 lung
SR leukemia = test system: SR leukemia
K-562 leukemia = test system: K-562 leukemia
SK-MEL-2 melanoma = test system: SK-MEL-2 melanoma
SW-620 colon = test system: SW-620 colon
ACHN renal = test system: ACHN renal
CCRF-CEM leukemia = test system: CCRF-CEM leukemia
HOP-62 NSCLC = test system: HOP-62 NSCLC
NCI-H226 lung = test system: NCI-H226 lung
U251 CNS = test system: U251 CNS
NCI/ADR-RES ovarian = test system: NCI/ADR-RES ovarian
SK-MEL-28 melanoma = test system: SK-MEL-28 melanoma
UACC-62 melanoma = test system: UACC-62 melanoma
SF-539 CNS = test system: SF-539 CNS
SF-295 CNS = test system: SF-295 CNS
SK-OV-3 ovarian = test system: SK-OV-3 ovarian
SF-268 CNS = test system: SF-268 CNS
COLO 205 colon = test system: COLO 205 colon
MCF7 breast = test system: MCF7 breast
RXF 393 renal = test system: RXF 393 renal
HCT-116 colon = test system: HCT-116 colon
SN12C renal = test system: SN12C renal

O=[N+]([O-])c1ccc(C(Br)c2ccc([N+](=O)[O-])cc2)cc1 showed a GI50 (HOP-92 NSCLC) of 2.01 µM, a TGI (HOP-92 NSCLC) of 4.99 µM and a GI50 (UO-31 renal) of 1.68 µM. For the same molecule, the TGI (UO-31 renal) was 5.34 µM, the GI50 (PC-3 prostate) was 3.34 µM and the TGI (PC-3 prostate) was 13.5 µM. For the same molecule, the GI50 (MALME-3M melanoma) was 2.06 µM, the TGI (MALME-3M melanoma) was 5.12 µM and the GI50 (M14 melanoma) was 1.91 µM. The TGI (M14 melanoma) was 4.2 µM, the GI50 (MDA-MB-231 breast) was 9.54 µM and the TGI (MDA-MB-231 breast) was 25.2 µM. The GI50 (SK-MEL-5 melanoma) was 2.04 µM, the TGI (SK-MEL-5 melanoma) was 4.9 µM and the GI50 (BT-549 breast) was 15.8 µM. The TGI (BT-549 breast) was 30.7 µM, the GI50 (HS 578T breast) was 17.9 µM and the TGI (HS 578T breast) was 53.7 µM. For the same molecule, the GI50 (RPMI-8226 leukemia) was 2.35 µM, the TGI (RPMI-8226 leukemia) was 6.75 µM and the GI50 (HT29 colon) was 1.63 µM. For the same molecule, the TGI (HT29 colon) was 5.2 µM, the GI50 (UACC-257 melanoma) was 10.2 µM and the TGI (UACC-257 melanoma) was 24.1 µM. The GI50 (LOX IMVI melanoma) was 1.65 µM, the TGI (LOX IMVI melanoma) was 3.23 µM and the GI50 (OVCAR-5 ovarian) was 17 µM. The TGI (OVCAR-5 ovarian) was 34.3 µM, the GI50 (OVCAR-4 ovarian) was 2.02 µM and the TGI (OVCAR-4 ovarian) was 4.85 µM. For the same molecule, the GI50 (DU-145 prostate) was 15.1 µM, the TGI (DU-145 prostate) was 28.6 µM and the GI50 (OVCAR-8 ovarian) was 2.72 µM. The TGI (OVCAR-8 ovarian) was 8.4 µM, the GI50 (OVCAR-3 ovarian) was 11.7 µM and the TGI (OVCAR-3 ovarian) was 24.3 µM. It also gave a GI50 (HCT-15 colon) of 1.67 µM, a TGI (HCT-15 colon) of 5.26 µM and a GI50 (A549 NSCLC) of 11.1 µM. It also gave a TGI (A549 NSCLC) of 26.5 µM, a GI50 (786-0 renal) of 9.88 µM and a TGI (786-0 renal) of 26 µM. For the same molecule, the GI50 (SNB-75 CNS) was 12.2 µM, the TGI (SNB-75 CNS) was 24.7 µM and the GI50 (NCI-H460 lung) was 16.3 µM. The TGI (NCI-H460 lung) was 40.2 µM, the GI50 (MOLT-4 leukemia) was 2.56 µM and the TGI (MOLT-4 leukemia) was 6.15 µM. The GI50 (SNB-19 CNS) was 15 µM, the TGI (SNB-19 CNS) was 33.2 µM and the GI50 (CAKI-1 renal) was 2.11 µM. It also gave a TGI (CAKI-1 renal) of 4.91 µM, a GI50 (A498 renal) of 6.06 µM and a TGI (A498 renal) of 23.5 µM. For the same molecule, the GI50 (IGROV1 ovarian) was 1.37 µM, the TGI (IGROV1 ovarian) was 3.17 µM and the GI50 (TK-10 renal) was 3.01 µM. For the same molecule, the TGI (TK-10 renal) was 10.4 µM, the GI50 (MDA-MB-435) was 3.44 µM and the TGI (MDA-MB-435) was 13.5 µM. It also gave a GI50 (KM12 colon) of 5.09 µM, a TGI (KM12 colon) of 18.4 µM and a GI50 (HL-60(TB) leukemia) of 8.58 µM. It also gave a TGI (HL-60(TB) leukemia) of 25.6 µM, a GI50 (T-47D breast) of 1.69 µM and a TGI (T-47D breast) of 5.13 µM. For the same molecule, the GI50 (EKVX NSCLC) was 14 µM, the TGI (EKVX NSCLC) was 28.7 µM and the GI50 (NCI-H23 lung) was 2.12 µM. The TGI (NCI-H23 lung) was 7.14 µM, the GI50 (SR leukemia) was 2.36 µM and the TGI (SR leukemia) was 6.73 µM. The GI50 (K-562 leukemia) was 3.12 µM, the TGI (K-562 leukemia) was 10.5 µM and the GI50 (SK-MEL-2 melanoma) was 4 µM. The TGI (SK-MEL-2 melanoma) was 17.2 µM, the GI50 (SW-620 colon) was 2.89 µM and the TGI (SW-620 colon) was 12 µM. For the same molecule, the GI50 (ACHN renal) was 11.6 µM, the TGI (ACHN renal) was 26.5 µM and the GI50 (CCRF-CEM leukemia) was 2.11 µM. It also gave a TGI (CCRF-CEM leukemia) of 5.98 µM, a GI50 (HOP-62 NSCLC) of 12.5 µM and a TGI (HOP-62 NSCLC) of 25.9 µM. For the same molecule, the GI50 (NCI-H226 lung) was 5.29 µM, the TGI (NCI-H226 lung) was 23.7 µM and the GI50 (U251 CNS) was 2.31 µM. The TGI (U251 CNS) was 6.16 µM, the GI50 (NCI/ADR-RES ovarian) was 2.37 µM and the TGI (NCI/ADR-RES ovarian) was 6.82 µM. The GI50 (SK-MEL-28 melanoma) was 16.6 µM, the TGI (SK-MEL-28 melanoma) was 30.5 µM and the GI50 (UACC-62 melanoma) was 5.11 µM. It also gave a TGI (UACC-62 melanoma) of 22 µM, a GI50 (SF-539 CNS) of 15.1 µM and a TGI (SF-539 CNS) of 31.1 µM. The GI50 (SF-295 CNS) was 13.9 µM, the TGI (SF-295 CNS) was 28.9 µM and the GI50 (SK-OV-3 ovarian) was 11 µM. The TGI (SK-OV-3 ovarian) was 23 µM, the GI50 (SF-268 CNS) was 4.35 µM and the TGI (SF-268 CNS) was 17.7 µM. It also gave a GI50 (COLO 205 colon) of 11.1 µM, a TGI (COLO 205 colon) of 24 µM and a GI50 (MCF7 breast) of 4.07 µM. The TGI (MCF7 breast) was 18.1 µM, the GI50 (RXF 393 renal) was 12.9 µM and the TGI (RXF 393 renal) was 26.1 µM. For the same molecule, the GI50 (HCT-116 colon) was 1.48 µM, the TGI (HCT-116 colon) was 4.06 µM and the GI50 (SN12C renal) was 3.07 µM. It also gave a TGI (SN12C renal) of 11 µM.
